# Experimental data: patent US10975093B2, “Fused 1,4-diazepines as BET protein degraders” (THE REGENTS OF THE UNIVERSITY OF MICHIGAN, priority 2016, dated 2021)
# Tests used:
# Type in all cases: cell-based
# MDA-MB-231 = experiment: Cell growth inhibition, CellTiter-Glo Luminescent Cell Viability Assay, MDA-MB-231; details: MDA-MB-231 cells, 4 days incubation
# Description: (§1) Cell growth inhibitory activity of representative Compounds of the Disclosure was determined in various cell lines using CellTiter-Glo® Luminescent Cell Viability Assay. Cells were seeded in 384-well white opaque cell culture plates at a density of 2,000 cells/well with serially diluted compounds and incubated at 37° C. in an atmosphere of 95% air and 5% CO2 for 4 days. Cell viability was determined using the CellTiter-Glo® Luminescent Cell Viability Assay Kit (Promega, Madison, Wis.) according to the manufacture's instruction. Briefly, a volume of CellTiter-Glo® Reagent equal to the volume of cell culture medium was added to each well, and then the plates were incubated at room temperature for 10-20 minutes. The luminescent signal was measured using a Tecan Infinite M1000 multimode microplate reader (Tecan, Morrisville, N.C.). The half maximal inhibitory concentration (IC50) was calculated using the GraphPad Prism 5 software (GraphPad Software, La Jolla, Calif.).
# RS4; 11 = experiment: Cell growth inhibition, CellTiter-Glo Luminescent Cell Viability Assay, RS4;11; details: Homo sapiens, 96 h, RS4;11 cells, 4 days incubation
# Description: as §1
# MOLM-13 = experiment: Cell growth inhibition, CellTiter-Glo Luminescent Cell Viability Assay, MOLM-13; details: MOLM-13 cells, 4 days incubation
# Description: as §1
"IC50 (MDA-MB-231; Homo sapiens, MDA-MB-231, 96 h)",IC50 (RS4; 11),"IC50 (MOLM-13; Homo sapiens, MOLM-13, 96 h)",IC50 (MDA-MB-231),IC50 (MOLM-13),Structure (SMILES)
284 nM,216 nM,,,,"Cc1c(C#Cc2cnn(CCCC#Cc3cccc4c3C(=O)N(C3CCC(=O)NC3)C4=O)c2)sc2c1C(c1ccc(Cl)cc1)=NCc1nnc(C)n1-2 (stereo not drawn) [compound 163, 4-(5-(4-((4-(4-chlorophenyl)-3,9-dimethyl-6H-thieno[3,2-f][1,2,4]triazolo[4,3-a][1,4]diazepin-2-yl)ethynyl)-1H-pyrazol-1-yl)pent-1-yn-yl)-2-(6-oxopiperidin-3-yl)isoindoline-1,3-dione]"
0.2 nM,,0.04 nM,,,"CCNC(=O)C[C@@H]1N=C(c2ccc(Cl)cc2)c2c(sc(C#Cc3cnn(CCCN4CCC(Nc5cccc6c5CN(C5CCC(=O)NC5=O)C6=O)CC4)c3)c2C)-n2c(C)nnc21 (stereo partly drawn) [compound 191, 2-((6S)-4-(4-chlorophenyl)-2-((1-(3-(4-((2-(2,6-dioxopiperidin-3-yl)-1-oxoisoindolin-4-yl)amino)piperidin-1-yl)propyl)-1H-pyrazol-4-yl)ethynyl)-3,9-dimthyl-6H-thieno[3,2-f][1,2,4]triazolo[4,3-a][1,4]diazepin-6-yl)-N-ethylacetamide]"
0.4 nM,,0.24 nM,,,"Cc1c(C#Cc2cnn(CCCN3CCC(Nc4cccc5c4CN(C4CCC(=O)NC4=O)C5=O)CC3)c2)sc2c1C(c1ccc(Cl)cc1)=NCc1nnc(C)n1-2 (stereo not drawn) [compound 148, 3-(4-((1-(3-(4-((4-(4-chlorophenyl)-3,9-dimethyl-6H-thieno[3,2-f][1,2,4]triazolo[4,3-a][1,4]diazepin-2-yl)ethynyl)-1H-pyrazol-1-yl)propyl)piperidin-4-yl)amino)-1-oxoisoindolin-2-yl)piperidine-2,6-dione]"
7.2 nM,,6.2 nM,,,"Cc1c(C#Cc2ccc(CN3CCC(CNc4cccc5c4CN(C4CCC(=O)NC4=O)C5=O)CC3)cn2)sc2c1C(c1ccc(Cl)cc1)=NCc1nnc(C)n1-2 (stereo not drawn) [compound 167, 3-(4-(((1-((6-((4-(4-chlorophenyl)-3,9-dimethyl-6H-thieno[3,2-f][1,2,4]triazolo[4,3-a][1,4]diazepin-2-yl)ethynyl)pyridin-3-yl)methyl)piperidin-4-yl)methyl)amino)-1-oxoisoindolin-2-yl)piperidine-2,6-dione]"
> 100 nM,,> 100 nM,,,"Cc1c(C#Cc2cnn(CCn3cnc(COc4cccc5c4CN(C4CCC(=O)NC4=O)C5=O)c3)c2)sc2c1C(c1ccc(Cl)cc1)=NCc1nnc(C)n1-2 (stereo not drawn) [compound 154, 3-(4-((1-(2-(4-((4-(4-chlorophenyl)-3,9-dimethyl-6H-thieno[3,2-f][1,2,4]triazolo[4,3-a][1,4]diazepin-2-yl)ethynyl)-1H-pyrazol-1-yl)ethyl)-1H-imidazol-4-yl)methoxy)-1-oxoisoindolin-2-yl)piperidine-2,6-dione]"
0.7 nM,,0.8 nM,,,"Cc1c(C#Cc2cnn(CCOCCOCCOCC#Cc3cccc4c3CN(C3CCC(=O)NC3=O)C4=O)c2)sc2c1C(c1ccc(Cl)cc1)=N[C@@H](CC(=O)OC(C)(C)C)c1nnc(C)n1-2 (stereo partly drawn) [compound 194, tert-butyl 2-((6S)-4-(4-chlorophenyl)-2-((1-(2-(2-(2-((3-(2-(2,6-dioxopiperidin-3-yl)-1-oxoisoindolin-4-yl)prop-2-yn-1-yl)oxy)ethoxy)ethoxy)ethyl)-1H-pyrazol-4-yl)ethynyl)-3,9-dimethyl-6H-thieno[3,2-f][1,2,4]triazolo[4,3-a][1,4]diazepin-6-yl)acetate]"
5.4 nM,,2.4 nM,,,"Cc1c(C#Cc2cnn(CCOCCOCCOCC#Cc3cccc4c3CN(C3CCC(=O)NC3=O)C4=O)c2)sc2c1C(c1ccc(Cl)cc1)=N[C@@H](CC(N)=O)c1nnc(C)n1-2 (stereo partly drawn) [compound 195, 2-((6S)-4-(4-chlorophenyl)-2-((1-(2-(2-(2-((3-(2-(2,6-dioxopiperidin-3-yl)-1-oxoisoindolin-4-yl)prop-2-yn-1-yl)oxy)ethoxy)ethoxy)ethyl)-1H-pyrazol-4-yl)ethynyl)-3,9-dimethyl-6H-thieno[3,2-f][1,2,4]triazolo[4,3-a][1,4]diazepin-6-yl)acetamide]"
0.4 nM,,0.2 nM,,,Cc1c(C#Cc2cnn(CCOCCOCCOCC#Cc3cccc4c3CN(C3CCC(=O)NC3=O)C4=O)c2)sc2c1C(c1ccc(Cl)cc1)=N[C@@H](C)c1nnc(C)n1-2 (stereo partly drawn) [compound 196]
532 nM,,> 1000 nM,,,"Cc1c(C#Cc2ccc(CCC#Cc3cccc4c3CN(C3CCC(=O)NC3=O)C4=O)cn2)sc2c1C(c1ccc(Cl)cc1)=NCc1nnc(C)n1-2 (stereo not drawn) [compound 181, 3-(4-(4-(6-((4-(4-chlorophenyl)-3,9-dimethyl-6H-thieno[3,2-f][1,2,4]triazolo[4,3-a][1,4]diazepin-2-yl)ethynyl)pyridin-3-yl)but-1-yn-1-yl)-1-oxoisoindolin-2-yl)piperidine-2,6-dione]"
1.5 nM,,0.24 ± 0.06 nM,,,"Cc1ncsc1-c1ccc([C@H](C)NC(=O)[C@@H]2C[C@@H](O)CN2C(=O)[C@@H](NC(=O)COCCOCCOCCOCCn2cc(C#Cc3sc4c(c3C)C(c3ccc(Cl)cc3)=N[C@@H](C)c3nnc(C)n3-4)cn2)C(C)(C)C)cc1 [compound 198, (2S,4R)-1-((S)-2-(tert-butyl)-17-(4-(((S)-4-(4-chlorophenyl)-3,6,9-trimethyl-6H-thieno[3,2-f][1,2,4]triazolo[4,3-a][1,4]diazepin-2-yl)ethynyl)-1H-pyrazol-1-yl)-4-oxo-6,9,12,15-tetraoxa-3-azaheptadecanoyl)-4-hydroxy-N-((S)-1-(4-(4-methylthiazol-5-yl)phenyl)ethyl)pyrrolidine-2-carboxamide]"
0.9 nM,,0.6 nM,1 nM,0.8 nM,"Cc1c(C#Cc2cnn(C[C@H]3CC[C@H](Nc4cccc5c4CN(C4CCC(=O)NC4=O)C5=O)CC3)c2)sc2c1C(c1ccc(Cl)cc1)=N[C@@H](C)c1nnc(C)n1-2 (stereo partly drawn) [compound 171, 3-(4-(((1S,4r)-4-((4-(((S)-4-(4-chlorophenyl)-3,6,9-trimethyl-6H-thieno[3,2-f][1,2,4]triazolo[4,3-a][1,4]diazepin-2-yl)ethynyl)-1H-pyrazol-1-yl)methyl)cyclohexyl)amino)-1-oxoisoindolin-2-yl)piperidine-2,6-dione]"
3.1 nM,,0.34 ± 0.03 nM,,,"Cc1ncsc1-c1ccc([C@H](C)NC(=O)[C@@H]2C[C@@H](O)CN2C(=O)[C@@H](NC(=O)COCCOCCOCCn2cc(C#Cc3sc4c(c3C)C(c3ccc(Cl)cc3)=N[C@@H](C)c3nnc(C)n3-4)cn2)C(C)(C)C)cc1 [compound 200, (2S,4R)-1-((S)-2-(tert-butyl)-14-(4-(((S)-4-(4-chlorophenyl)-3,6,9-trimethyl-6H-thieno[3,2-f][1,2,4]triazolo[4,3-a][1,4]diazepin-2-yl)ethynyl)-1H-pyrazol-1-yl)-4-oxo-6,9,12-trioxa-3-azatetradecanoyl)-4-hydroxy-N-((S)-1-(4-(4-methylthiazol-5-yl)phenyl)ethyl)pyrrolidine-2-carboxamide]"
0.43 nM,,0.23 nM,,,"Cc1c(C#Cc2ccc(CCCCNc3cccc4c3CN(C3CCC(=O)NC3=O)C4=O)nc2)sc2c1C(c1ccc(Cl)cc1)=N[C@@H](C)c1nnc(C)n1-2 (stereo partly drawn) [Cpd. No. 18, 3-(4-((4-(5-(((S)-4-(4-chlorophenyl)-3,6,9-trimethyl-6H-thieno[3,2-f][1,2,4]triazolo[4,3-a][1,4]diazepin-2-yl)ethynyl)pyridin-2-yl)butyl)amino)-1-oxoisoindolin-2-yl)piperidine-2,6-dione]"
0.6 nM,,1 nM,,,"Cc1c(C#Cc2cnn(CCCN3CCN(c4cccc5c4C(=O)N(C4CCC(=O)NC4=O)C5=O)CC3)c2)sc2c1C(c1ccc(Cl)cc1)=N[C@@H](C)c1nnc(C)n1-2 (stereo partly drawn) [compound 178, 4-(4-(3-(4-(((S)-4-(4-chlorophenyl)-3,6,9-trimethyl-6H-thieno[3,2-f][1,2,4]triazolo[4,3-a][1,4]diazepin-2-yl)ethynyl)-1H-pyrazol-1-yl)propyl)piperazin-1-yl)-2-(2,6-dioxopiperidin-3-yl)isoindoline-1,3-dione]"
4.4 nM,,2.3 nM,,,"Cc1c(C#Cc2cnn(C[C@H]3CC[C@@H](Nc4cccc5c4CN(C4CCC(=O)NC4=O)C5=O)CC3)c2)sc2c1C(c1ccc(Cl)cc1)=N[C@@H](C)c1nnc(C)n1-2 (stereo partly drawn) [compound 172, 3-(4-(((1R,4s)-4-((4-(((S)-4-(4-chlorophenyl)-3,6,9-trimethyl-6H-thieno[3,2-f][1,2,4]triazolo[4,3-a][1,4]diazepin-2-yl)ethynyl)-1H-pyrazol-1-yl)methyl)cyclohexyl)amino)-1-oxoisoindolin-2-yl)piperidine-2,6-dione]"
> 100 nM,,> 100 nM,,,"Cc1c(C#Cc2cnn(CCCn3cnc(CNc4cccc5c4CN(C4CCC(=O)NC4=O)C5=O)c3)c2)sc2c1C(c1ccc(Cl)cc1)=NCc1nnc(C)n1-2 (stereo not drawn) [compound 151, 3-(4-(((1-(3-(4-((4-(4-chlorophneyl)-3,9-dimethyl-6H-thieno[3,2-f][1,2,4]triazolo[4,3-a][1,4]diazepin-2-yl)ethynyl)-1H-pyrazol-1-yl)propyl)-1H-imidazol-4-yl)methyl)amino)-1-oxoisoindolin-2-yl)piperidine-2,6-dione]"
1.7 nM,,2.8 nM,,,"Cc1c(C#Cc2ccc(CCC#Cc3cccc4c3CN(C3CCC(=O)NC3=O)C4=O)cn2)sc2c1C(c1ccc(Cl)cc1)=N[C@@H](C)c1nnc(C)n1-2 (stereo partly drawn) [compound 182, 3-(4-(4-(6-(((S)-4-(4-chlorophenyl)-3,6,9-trimethyl-6H-thieno[3,2-f][1,2,4]triazolo[4,3-a][1,4]diazepin-2-yl)ethynyl)pyridin-3-yl)but-1-yn-1-yl)-1-oxoisoindolin-2-yl)piperidine-2,6-dione]"
